Data taken from US10414763B2 (CANCER RESEARCH TECHNOLOGY LIMITED, priority 2014, dated 2019).

Molecular target: T1, full-length human PKCι (Homo sapiens, UniProt P41743)
T1 construct: Recombinant, full-length human PKCι expressed in Sf21 insect cells is also commercially available; purchased EMD Millipore; host or cells: Sf21 insect cells (baculovirus)
T1 sequence (P41743 1-596): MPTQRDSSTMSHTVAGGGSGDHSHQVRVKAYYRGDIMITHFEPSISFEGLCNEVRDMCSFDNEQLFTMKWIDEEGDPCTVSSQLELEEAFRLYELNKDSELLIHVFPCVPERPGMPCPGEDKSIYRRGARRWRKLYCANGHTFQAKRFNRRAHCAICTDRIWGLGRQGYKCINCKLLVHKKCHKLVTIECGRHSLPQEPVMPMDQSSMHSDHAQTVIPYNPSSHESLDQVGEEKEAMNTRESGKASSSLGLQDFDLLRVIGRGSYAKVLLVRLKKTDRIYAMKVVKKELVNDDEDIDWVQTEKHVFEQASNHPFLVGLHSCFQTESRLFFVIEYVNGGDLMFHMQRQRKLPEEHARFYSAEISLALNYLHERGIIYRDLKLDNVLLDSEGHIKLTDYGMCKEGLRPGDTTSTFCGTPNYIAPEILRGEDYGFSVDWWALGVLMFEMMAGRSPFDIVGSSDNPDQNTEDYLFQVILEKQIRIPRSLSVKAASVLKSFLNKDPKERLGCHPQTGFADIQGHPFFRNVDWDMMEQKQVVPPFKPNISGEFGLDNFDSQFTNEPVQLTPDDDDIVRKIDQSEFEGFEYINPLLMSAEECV
Assay: PKCι IC50 IMAP fluorescence polarisation assay, full-length enzyme, 150 μM ATP
Type: biochemical
Details: read-out: IC50 in IMAP assay against full length PKCi at 150 μM ATP
In short: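 IMAP fluorescence polarisation kinase assay: 15 pM baculovirus-expressed human PKCiota with 100 nM FAM-pseudosubstrate peptide and 150 μM ATP, 1 h at 25 °C. IMAP detection reagent then 2 h at 25 °C before FP measurement. Inhibition referenced to no-compound and no-enzyme controls for IC50 fitting.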

IC50 [µM]	Compound
< 0.1	NC1CCN(c2nc(-c3ccnc4[nH]c5ccccc5c34)nc3cncc(C4CCC4)c23)C1 (stereo not shown) [Example 214, 1-[5-Cyclobutyl-2-(9H-pyrido[2,3-b]indol-4-yl)-pyrido[3,4-d]pyrimidin-4-yl]-pyrrolidin-3-ylamine]
0.1 to 1	FC(F)(F)c1cncc2nc(-c3ccnc4[nH]c5ccccc5c34)nc(N3CCNCC3)c12 [Example 215, 4-(4-Piperazin-1-yl-5-trifluoromethyl-pyrido[3,4-d]pyrimidin-2-yl)-9H-pyrido[2,3-b]indole]
0.1 to 1	FC(F)(F)c1cncc2nc(-c3ccnc4[nH]c5ccccc5c34)nc(N3CC[C@@H]4CNC[C@@H]43)c12 [Example 216, 4-((3R,6R)-4-Hexahydro-pyrrolo[3,4-b]pyrrol-1-yl-5-trifluoromethyl-pyrido[3,4-d]pyrimidin-2-yl)-9H-pyrido[2,3-b]indole]
< 0.1	CC1(C)CNCC[C@@H]1Nc1nc(-c2ccnc3[nH]c4ccccc4c23)nc2cncc(C(F)(F)F)c12 [Example 217, ((S)-3,3-Dimethyl-piperidin-4-yl)-[2-(9H-pyrido[2,3-b]indol-4-yl)-5-trifluoromethyl-pyrido[3,4-d]pyrimidin-4-yl]-amine]
0.1 to 1	N[C@H]1C[C@@H](Nc2nc(-c3ccnc4[nH]c5ccccc5c34)nc3cncc(C(F)(F)F)c23)C1 [Example 218, cis-N-[2-(9H-Pyrido[2,3-b]indol-4-yl)-5-trifluoromethyl-pyrido[3,4-d]pyrimidin-4-yl]-cyclobutane-1,3-diamine]
< 0.1	OC1CNCCC(Nc2nc(-c3ccnc4[nH]c5ccccc5c34)nc3cncc(C(F)(F)F)c23)C1 (stereo not shown) [Example 219, 5-[2-(9H-Pyrido[2,3-b]indol-4-yl)-5-trifluoromethyl-pyrido[3,4-d]pyrimidin-4-ylamino]-azepan-3-ol]
< 0.1	CN(c1nc(-c2ccnc3[nH]c4ccccc4c23)nc2cncc(C(F)(F)F)c12)C1CC(N)C(O)C1 (stereo not shown) [Example 220, 2-Amino-4-{methyl-[2-(9H-pyrido[2,3-b]indol-4-yl)-5-trifluoromethyl-pyrido[3,4-d]pyrimidin-4-yl]-amino}-cyclopentanol]
0.1 to 1	NC1CCN(c2nc(-c3ccnc4[nH]c5ccccc5c34)nc3cncc(C(F)(F)F)c23)C1 (stereo not shown) [Example 221, 1-[2-(9H-Pyrido[2,3-b]indol-4-yl)-5-trifluoromethyl-pyrido[3,4-d]pyrimidin-4-yl]-pyrrolidin-3-ylamine]
< 0.1	Fc1ccc(Cl)c(-c2cc3c(-c4nc(N5CCNCC5)c5c(C6CC6)cncc5n4)ccnc3[nH]2)c1 [Example 222, 2-[2-(2-Chloro-5-fluoro-phenyl)-1H-pyrrolo[2,3-b]pyridin-4-yl]-5-cyclopropyl-4-piperazin-1-yl-pyrido[3,4-d]pyrimidine]
< 0.1	CC1(C)CNCC[C@@H]1Nc1nc(-c2ccnc3[nH]c(C(F)(F)F)cc23)nc2cncc(C3CC3)c12 [Example 227, [5-Cyclopropyl-2-(2-trifluoromethyl-1H-pyrrolo[2,3-b]pyridin-4-yl)-pyrido[3,4-d]pyrimidin-4-yl]-((S)-3,3-dimethyl-piperidin-4-yl)-amine]
< 0.1	CC1(C)CNCC[C@@H]1Nc1nc(-c2ccnc3[nH]c(C(F)(F)F)cc23)nc2cncc(C3CCC3)c12 [Example 228, [5-Cyclobutyl-2-(2-trifluoromethyl-1H-pyrrolo[2,3-b]pyridin-4-yl)-pyrido[3,4-d]pyrimidin-4-yl]-((S)-3,3-dimethyl-piperidin-4-yl)-amine]
< 0.1	CC1(C)CNCC[C@@H]1Nc1nc(-c2ccnc3[nH]c(-c4cc(F)ccc4Cl)cc23)nc2cncc(C3CC3)c12 [Example 229, {2-[2-(2-Chloro-5-fluoro-phenyl)-1H-pyrrolo[2,3-b]pyridin-4-yl]-5-cyclopropyl-pyrido[3,4-d]pyrimidin-4-yl}-((S)-3,3-dimethyl-piperidin-4-yl)-amine]
< 0.1	FC1CNCCC(Nc2nc(-c3ccnc4[nH]c5ccccc5c34)nc3cncc(C4CCC4)c23)C1 (stereo not shown) [Example 232, [5-Cyclobutyl-2-(9H-pyrido[2,3-b]indol-4-yl)-pyrido[3,4-d]pyrimidin-4-yl]-(6-fluoro-azepan-4-yl)-amine]
< 0.1	c1ccc(-n2cnc(Nc3cc(-c4nc(N5CCC6CNCCC65)c5c(C6CC6)cncc5n4)ccn3)n2)cc1 (stereo not shown) [Example 235, [4-[5-Cyclopropyl-4-(octahydro-pyrrolo[3,2-c]pyridin-1-yl)-pyrido[3,4-d]pyrimidin-2-yl]-pyridin-2-yl}-(1-phenyl-1H-1,2,4-triazol-3-yl)-amine]
< 0.1	O[C@]12CCN(c3nc(-c4ccnc(Nc5ncn(-c6ccccc6)n5)c4)nc4cncc(C5CC5)c34)[C@H]1CCNC2 [Example 236]
< 0.1	c1ccc(Cn2cnc(Nc3cc(-c4nc(N5CCC6CNCCC65)c5c(C6CC6)cncc5n4)ccn3)n2)cc1 (stereo not shown) [Example 239, (1-Benzyl-1H-1,2,4-triazol-3-yl)-{4-[5-cyclopropyl-4-(octahydro-pyrrolo[3,2-c]pyridin-1-yl)-pyrido[3,4-d]pyrimidin-2-yl]-pyridin-2-yl}-amine]
< 0.1	CC1(C)CNCC[C@@H]1Nc1nc(-c2ccnc(Nc3nc4ccccn4n3)c2)nc2cncc(C3CC3)c12 [Example 241, [5-Cyclopropyl-2-[2-([1,2,4]triazolo[1,5-a]pyridin-2-ylamino)-pyridin-4-yl]-pyrido[3,4-d]pyrimidin-4-yl}-((S)-3,3-dimethyl-piperidin-4-yl)-amine]
< 0.1	CC1(C)CNCC[C@@H]1Nc1nc(-c2ccnc(Nc3ncn(Cc4ccccc4)n3)c2)nc2cncc(C3CC3)c12 [Example 242, {2-[2-(1-Benzyl-1H-1,2,4-triazol-3-ylamino)-pyridin-4-yl]-5-cyclopropyl-pyrido[3,4-d]pyrimidin-4-yl}-((S)-3,3-dimethyl-piperidin-4-yl)-amine]
< 0.1	CC1(C)CNCC[C@@H]1Nc1nc(-c2ccnc(Nc3ncn(-c4ccccc4)n3)c2)nc2cncc(C3CC3)c12 [Example 243, {5-Cyclopropyl-2-[2-(1-phenyl-1H-1,2,4-triazol-3-ylamino)-pyridin-4-yl]-pyrido[3,4-d]pyrimidin-4-yl}-((S)-3,3-dimethyl-piperidin-4-yl)-amine]
< 0.1	c1ccn2nc(Nc3cc(-c4nc(N5CCC6NCCCC65)c5c(C6CC6)cncc5n4)ccn3)nc2c1 (stereo not shown) [Example 244, {4-[5-Cyclopropyl-4-(octahydro-pyrrolo[3,2-b]pyridin-1-yl)-pyrido[3,4-d]pyrimidin-2-yl]-pyridin-2-yl}-[1,2,4]triazolo[1,5-a]pyridin-2-yl-amine]
< 0.1	c1ccc(-n2cnc(Nc3cc(-c4nc(N5CCC6NCCCC65)c5c(C6CC6)cncc5n4)ccn3)n2)cc1 (stereo not shown) [Example 245, {4-[5-Cyclopropyl-4-(octahydro-pyrrolo[3,2-b]pyridin-1-yl)-pyrido[3,4-d]pyrimidin-2-yl]-pyridin-2-yl}-(1-phenyl-1H-1,2,4-triazol-3-yl)-amine]

Compound	IC50 [µM]
CN(c1nc(-c2ccnc3[nH]c(C(C)(C)C)cc23)nc2cncc(C3CCC3)c12)C1CCNCC1 [Example 213, [2-(2-tert-Butyl-1H-pyrrolo[2,3-b]pyridin-4-yl)-5-cyclobutyl-pyrido[3,4-d]pyrimidin-4-yl]-methyl-piperidin-4-yl-amine]	< 0.1
